Entries after “also recorded” stand apart in the source; their conditions may differ.
How the values were obtained:
[1] = Franz diffusion cell, in vitro transdermal permeation of Forskolin with or without tetrahydropiperine; type: in vitro ADME, rat; settings: for Increase in release (% of Forskolin): with THP vs control
Experimental: In vitro permeation studies of Forskholin, a diterpenoid compound which has various therapeutic effects (Bronchodilation—used in Asthma, prevents platelet aggregation, anti hypertensive, anti glaucoma and anti-inflammatory) was carried out. Fabricated Franz diffusion cells of capacity 67 and 69 ml were used for the study. Freshly excised rat abdominal skin was used for the permeation studies.
Solutions Used in the Study • a) 2.5% Forskolin in methanol. • b) 0.05% Tetrahydropiperine in 2.5% Forskolin in methanol. • c) 0.1% Tetrahydropiperine in 2.5% Forskolin in methanol. Procedure
Freshly excised rat abdominal […] was mounted on the Franz diffusion Cell, the outer layer of the skin facing the donor compartment. The receptor fluid was maintained at 35° C. using a thermostatic magnetic stirrer.
The study was conducted by replacing the medium in the receptor compartment with methanol instead of phosphate buffer. In both the receptor and donor compartment methanol was used as the medium in the permeation studies.
In the donor compartment 2 ml methanol containing 50 mg of Forskolin and tetrahydropiperine (5% of Forskolin conc.) was taken. Receptor compartment consisted of 69 ml of methanol maintained at 35° C. Permeation study was carried out for a period of 1 hr. Samples were withdrawn at 15, 30 and 60 minutes intervals and the amount of Forskholin present was analyzed by HPLC.
In the donor compartment 2 ml methanol containing 50 mg of Forskholin was taken. Receptor compartment consisted of 65 ml of methanol maintained at 35° C. Permeation study was carried out for a period of 1 hour. Samples were withdrawn at 15, 30 and 60 minutes intervals and the amount of Forskholin present was analyzed by HPLC.

[2] = In vitro DPPH radical scavenging method (THC with or without THP); type: biochemical
Experimental: The bioenhancing potential of THP on the free-radical scavenging properties of topically applied THC was evaluated. In this in vitro DPPH radical scavenging method, the ability of an anti-oxidant to bind and inactivate the 1,1 diphenyl-2-picrylhydrazyl radical, or DPPH, was measured. DPPH is considered an example of a very stable free radical. The control sample contained 0.01% of THC while active samples contained 0.01% of THC with THP concentrations ranging from 0.1%-0.0001%. Additionally, controls containing various concentrations of THP alone were also tested for DPPH binding.

[3] = test system: tobacco cut worm, Spodoptera litura F.; assay: whole plant or invertebrate; settings: 48 hours
Experimental: The tetrahydropiperine was tested against tobacco cut worm, Spodoptera litura F. to determine its possible increased kill rate when used with Fenvalerate—a synthetic pyrethroid.
• a. Preparation of test solution—0.5 g of the test product was dissolved in 1 ml of Ethanol and made up to 100 ml in standard volumetric flask using suitable emulsifier. This solution contains 5000 ppm a.i. (0.5 percent). Further, serial dilution was made to get 0.25, 0.125 and 0.0625% of the test product. To each of these test solutions, Fenvalerate was added to get 250 ppm of Fenvalerate a.i. in the final volume. For comparison 0.5 percent of Tetrahydropiperine, Ethanol 1.0 percent solution and 250 ppm a.i. of Fenvalerate was used. • b. Bioassay—Laboratory reared 7 day old larvae of tobacco cut worm, Spodoptera litura were used in the experiment. After a series of preliminary tests the concentrations chosen for the experiment were 0.5, 0.25, 0.125 and 0.0625 percent tetrahydropiperine. Fresh castor leaves were dipped for 30 seconds in above concentrations of test and standard compounds and blank solutions. After proper drying, the treated leaves were transferred to plastic containers. To each container 5 larvae were released. This was repeated four times so as to have 20 larvae for each concentration. Larvae in control set were fed with leaves dipped in water. Observations were recorded for larval mortality after 48 hours of exposure. Results

[4] = Primary skin irritation potential, Draize's method; type: in vivo, New Zealand White rabbits
Experimental: The study was designed to determine the primary skin irritation potential on New Zealand White rabbits following the guidelines provided by Gaitonde Committee, CIB, New Delhi, India
New Zealand White, healthy, adult male and female rabbits, each group comprising of 3 randomly selected animals of each sex.
0.5 ml of the test substance was applied to dehaired intact and abraded skin sites of each test animal. Care was taken to note that the abrasions penetrated the Stratum corneum, but not the dermis. A gauze patch was secured over each treated area using tape. The patch and unabsorbed test substance were removed after 24 hours. Each site of application was carefully observed and the reaction evaluated according to Draize's method at 24 and 72 hours.

[5] = 48 hour skin patch test for irritation in humans; type: in vivo, human
Experimental: In another aspect of the present invention, a study was conducted to determine whether a topical composition containing THP (98% purity), at a level of 0.01% and 0.1% by weight, which is preferred topical dose range for the compound, would produce symptoms of topical irritation. A skin patch test using THP in a petrolatum vehicle was conducted on 50 healthy volunteers for 48 hr with reading of the results after 48 hr and 72 hr. […] The irritation score was reported by the supervising physician, a practicing dermatologist, as 0. […] Based on previous experience with the parent compound, THP should not irritate the stomach mucosa at dose level of up to 50 mg per os in an adult healthy volunteer.
The 48 hour Repeat Insult Patch Test was used to evaluate skin irritation potential of the test compound.
50 Male or female subjects aged between 18 and 87 years participated in the study. 5 male and 41 female subjects completed the study. The subjects were in good health and using no medications from 30 days prior to the commencement of the study.
The test material was applied occlusively, 0.1% w/w diluted in petrolatum. 0.2 g or 0.2 cc of the test material was dispensed into the skin of the upper back. Paper tape such as 3M Micropore™ or Kendall Tenderskin™ was used for fixation after preparation of the surrounding skin with an adhesion enhancer such as Mastitol™. The subject was instructed to avoid exposure to water or to direct sunlight during the 48 hour observation period. The tape was removed at the test facility at the end of the exposure period and evaluated by trained personnel under the supervision of the principal investigator.
Reactions were scored based on the appearance of erythema or edema immediately following removal of the patch and again at 24 hours following removal. Subjects were instructed to report any delayed reactions occurring after the final reading.

[6] = Solubility (specification of THP); type: physicochemical
[7] = THP 0.01% and 0.1% by weight in petrolatum, 48 hr patch, read after 48 hr and 72 hr

Compound: O=C(CCCCc1ccc2c(c1)OCO2)N1CCCCC1 [Tetrahydropiperine, 1-[5-(1,3-Benzodioxol-5 yl)-1-oxo-pentanoyl]-Piperidine]
- permeation of Forskolin ([1]; Tetrahydropiperine 5% of Forskolin concentration): enhanced
- permeation of Forskolin ([1]; tetrahydropiperine 2% of Forskolin concentration): enhanced permeation was not observed
- Increase in release (% of Forskolin) ([1]; 15 min): 28.12%
- Increase in release (% of Forskolin) ([1]; 30 min): 39.25%
- Increase in release (% of Forskolin) ([1]; 60 min): 5.09%
- enhancement of the antioxidant properties of THC as compared to THC alone ([2]; 0.01% THC with THP 0.1%-0.0001%): up to 30%
- THC bioenhancing activity ([2]; 0.01% THC with THP at highest dilution of 0.0001%): still displayed some beneficial THC bioenhancing activity
- anti-oxidant properties (DPPH binding) ([2]; THP alone, various concentrations): did not show any significant anti-oxidant properties
- PERCENT MORTALITY (Mean of 4 replications) ([3]; Tetrahydropiperine 0.0625% + 250 ppm a.i. Fenvalerate): 50%
- PERCENT MORTALITY (Mean of 4 replications) ([3]; Tetrahydropiperine 0.0625% + 250 ppm a.i. Fenvalerate, listed as tetrahydropiperine): did not enhance the activity
- PERCENT MORTALITY (Mean of 4 replications) ([3]; Tetrahydropiperine 0.125% + 250 ppm a.i. Fenvalerate): 65%
- PERCENT MORTALITY (Mean of 4 replications) ([3]; Tetrahydropiperine 0.5% + 250 ppm a.i. Fenvalerate): 100%
- PERCENT MORTALITY (Mean of 4 replications) ([3]; Tetrahydropiperine 0.5% alone): 0%
- PERCENT MORTALITY (Mean of 4 replications) ([3]; Tetrahydropiperine 0.5% alone, listed as tetrahydropiperine): did not show any activity
- PERCENT MORTALITY (Mean of 4 replications) ([3]; Tetrahydropiperine […] + 250 ppm a.i. Fenvalerate): 85%
- skin reaction (erythema, edema, irritation) ([4]; 0.5 ml on intact and abraded skin sites, patch 24 hours, evaluated at 24 and 72 hours): No erythema or edema; also recorded: did not cause any irritation
- primary skin irritation score ([4]; intact and abraded skin, Draize's method, 24 and 72 hours): zero
- skin reaction (erythema, edema, primary contact irritation) ([5]; 0.1% w/w in petrolatum, occlusive, 48 hours exposure): No erythema or edema reactions; also recorded: appears not to produce primary (contact) irritation
- irritation score [5, 7]: 0
- skin irritation [5, 7]: Neither dose caused skin irritation
- Solubility ([6]; chloroform): Soluble
- Solubility ([6]; methanol): Soluble
- Solubility ([6]; water): insoluble
